From ChEMBL document CHEMBL1135171, “Discovery of potent and selective small molecule NPY Y5 receptor antagonists” (Bioorg Med Chem Lett, 2002)

Legend:
[1] = biological target: T1, Neuropeptide Y receptor type 1 (Homo sapiens, UniProt P25929); test: Tested for radioligand binding affinity against membranes from COS-7 cells transiently transfected with Neuropeptide Y receptor type 1; format: cell membranes
T1 sequence (P25929 whole entry): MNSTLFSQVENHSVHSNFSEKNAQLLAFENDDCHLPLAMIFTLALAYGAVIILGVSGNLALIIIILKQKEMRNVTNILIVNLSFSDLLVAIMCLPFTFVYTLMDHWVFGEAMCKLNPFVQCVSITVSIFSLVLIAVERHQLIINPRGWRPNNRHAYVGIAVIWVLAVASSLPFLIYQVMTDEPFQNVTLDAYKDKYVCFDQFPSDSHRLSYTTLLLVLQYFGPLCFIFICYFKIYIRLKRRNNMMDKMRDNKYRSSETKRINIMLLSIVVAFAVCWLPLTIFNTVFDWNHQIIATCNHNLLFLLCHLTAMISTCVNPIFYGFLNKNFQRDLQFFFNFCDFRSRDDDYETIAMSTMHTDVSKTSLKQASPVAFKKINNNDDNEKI

[2] = biological target: T2, Neuropeptide Y receptor type 5 (Homo sapiens, UniProt Q15761); test: Tested for radioligand binding affinity against membranes from COS-7 cells transiently transfected with Neuropeptide Y receptor type 5; format: cell membranes
T2 sequence (Q15761 whole entry): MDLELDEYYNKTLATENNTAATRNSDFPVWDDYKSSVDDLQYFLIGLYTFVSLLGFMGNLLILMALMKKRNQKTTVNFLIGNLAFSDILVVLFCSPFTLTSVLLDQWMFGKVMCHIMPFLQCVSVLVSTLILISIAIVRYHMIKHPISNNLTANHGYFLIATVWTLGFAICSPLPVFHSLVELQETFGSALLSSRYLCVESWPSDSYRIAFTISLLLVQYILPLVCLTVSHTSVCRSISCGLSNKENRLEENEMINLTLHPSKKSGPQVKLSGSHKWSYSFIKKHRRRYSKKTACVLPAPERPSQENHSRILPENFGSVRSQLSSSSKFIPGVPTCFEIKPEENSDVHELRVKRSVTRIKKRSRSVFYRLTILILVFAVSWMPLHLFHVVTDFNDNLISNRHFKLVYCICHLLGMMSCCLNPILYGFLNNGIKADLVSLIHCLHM

[3] = biological target: T3, Neuropeptide Y receptor type 1 (Rattus norvegicus, UniProt P21555); test: Functional response of NPY to inhibit forskolin-stimulated cAMP in cells stably transfected with Neuropeptide Y receptor type 1
T3 sequence (P21555 whole entry): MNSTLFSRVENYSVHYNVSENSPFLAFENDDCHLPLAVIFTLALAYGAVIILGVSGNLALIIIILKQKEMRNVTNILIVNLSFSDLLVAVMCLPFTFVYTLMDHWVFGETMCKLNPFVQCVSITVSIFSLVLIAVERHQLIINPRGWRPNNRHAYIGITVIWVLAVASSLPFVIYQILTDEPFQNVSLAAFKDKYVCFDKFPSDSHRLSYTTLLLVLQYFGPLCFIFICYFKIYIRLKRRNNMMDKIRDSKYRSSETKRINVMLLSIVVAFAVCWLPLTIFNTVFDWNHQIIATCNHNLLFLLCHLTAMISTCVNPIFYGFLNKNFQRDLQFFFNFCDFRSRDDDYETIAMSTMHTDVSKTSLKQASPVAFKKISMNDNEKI

[4] = biological target: T4, Neuropeptide Y receptor type 5 (Rattus norvegicus, UniProt Q63634); test: Functional response of NPY to inhibit forskolin-stimulated cAMP in cells stably transfected with rat Neuropeptide Y receptor type 5
T4 sequence (Q63634 whole entry): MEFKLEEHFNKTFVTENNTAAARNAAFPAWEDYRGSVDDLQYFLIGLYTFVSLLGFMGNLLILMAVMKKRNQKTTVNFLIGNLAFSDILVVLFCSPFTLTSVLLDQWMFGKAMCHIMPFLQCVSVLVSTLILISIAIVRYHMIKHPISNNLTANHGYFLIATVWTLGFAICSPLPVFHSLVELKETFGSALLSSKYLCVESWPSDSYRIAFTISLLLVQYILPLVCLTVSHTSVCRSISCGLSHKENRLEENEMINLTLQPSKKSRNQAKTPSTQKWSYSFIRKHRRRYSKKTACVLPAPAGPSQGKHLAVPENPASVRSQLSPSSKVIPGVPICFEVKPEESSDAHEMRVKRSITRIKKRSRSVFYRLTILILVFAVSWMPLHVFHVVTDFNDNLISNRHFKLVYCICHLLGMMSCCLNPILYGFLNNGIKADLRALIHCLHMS

[5] = biological target: T5, Alpha-2C adrenergic receptor (Homo sapiens, UniProt P18825); test: Bnding affinity against cloned human Alpha-2C adrenergic receptor was evaluated
T5 sequence (P18825 whole entry): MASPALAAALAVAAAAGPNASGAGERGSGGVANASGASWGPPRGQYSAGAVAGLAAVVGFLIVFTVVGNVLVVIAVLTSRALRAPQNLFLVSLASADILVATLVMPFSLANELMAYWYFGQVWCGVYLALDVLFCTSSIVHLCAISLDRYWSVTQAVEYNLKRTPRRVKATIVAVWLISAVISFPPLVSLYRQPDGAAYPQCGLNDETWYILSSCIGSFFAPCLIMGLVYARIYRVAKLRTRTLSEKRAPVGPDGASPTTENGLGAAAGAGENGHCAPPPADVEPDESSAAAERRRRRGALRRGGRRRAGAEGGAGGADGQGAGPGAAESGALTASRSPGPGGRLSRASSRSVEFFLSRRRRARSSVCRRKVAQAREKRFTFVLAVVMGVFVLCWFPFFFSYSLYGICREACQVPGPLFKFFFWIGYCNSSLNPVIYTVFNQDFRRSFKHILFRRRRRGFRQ

D(2) dopamine receptor = D(2) dopamine receptor (Homo sapiens, UniProt P14416); test: Binding affinity against cloned human Dopamine receptor D2 was evaluated
Sequence of D(2) dopamine receptor (P14416 whole entry): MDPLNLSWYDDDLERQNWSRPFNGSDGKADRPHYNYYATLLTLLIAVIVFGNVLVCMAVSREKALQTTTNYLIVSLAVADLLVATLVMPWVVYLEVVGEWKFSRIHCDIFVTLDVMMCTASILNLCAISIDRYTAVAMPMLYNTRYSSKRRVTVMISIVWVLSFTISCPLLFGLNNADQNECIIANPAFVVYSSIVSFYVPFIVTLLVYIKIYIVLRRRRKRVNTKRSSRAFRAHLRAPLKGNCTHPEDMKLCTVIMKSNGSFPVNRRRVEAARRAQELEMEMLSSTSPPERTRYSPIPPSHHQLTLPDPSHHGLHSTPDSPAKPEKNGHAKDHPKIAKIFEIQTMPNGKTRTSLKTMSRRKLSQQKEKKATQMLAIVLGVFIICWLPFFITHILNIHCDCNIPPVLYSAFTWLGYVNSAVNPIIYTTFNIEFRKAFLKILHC

Row | Compound | Ki [1] [µM] | Ki [2] [nM] | Ki [3] [µM] | Ki [4] [nM] | Ki [5] [nM] | Ki (D(2) dopamine receptor) [nM]
1 | O=[N+]([O-])c1ccccc1S(=O)(=O)NC[C@H]1CC[C@H](CNCC2CCc3ccccc3C2)CC1 (some centres undefined) | 16 | 8 | 22 | 18 | 100 | 63
2 | O=S(=O)(NCCCCCCNCc1ccc2ccccc2c1)c1ccc2ccccc2c1 | 7.3 | 123 |  |  |  | 
3 | O=S(=O)(NC[C@H]1CC[C@H](CNCc2ccc3ccccc3c2)CC1)c1ccccc1C(F)(F)F | 13 | 10 |  |  |  | 
4 | O=S(=O)(NC[C@H]1CC[C@H](CNCc2cccc3ccccc23)CC1)c1ccccc1C(F)(F)F | 14.5 | 26 |  |  |  | 

Continued, values first:

Row | Ki [1] [µM] | Ki [2] [nM] | Ki [3] [µM] | Ki [4] [nM] | Ki [5] [nM] | Ki (D(2) dopamine receptor) [nM] | Compound
5 | 17.2 | 10 |  |  |  |  | Nc1ccccc1S(=O)(=O)NC[C@H]1CC[C@H](CNCC2CCc3ccccc3C2)CC1 (some centres undefined)
6 | 48.7 | 28 |  |  |  |  | O=[N+]([O-])c1ccccc1S(=O)(=O)NC[C@H]1CC[C@H](CNCc2ccnc3ccccc23)CC1
7 | 23.7 |  |  |  |  |  | O=[N+]([O-])c1ccccc1S(=O)(=O)NC[C@H]1CC[C@H](CNCc2ccc3ccccc3n2)CC1
8 | 3.55 | 11 |  |  |  |  | O=S(=O)(NC[C@H]1CC[C@H](CNCC2CCc3ccccc3C2)CC1)c1cccc2ccccc12 (some centres undefined)
